According to patent US10011573B2, “Human androgen receptor DNA-binding domain (DBD) compounds as therapeutics and methods for their use” (The University of British Columbia, priority 2014, dated 2018):
Read-outs that look alike come from different tables or passages of the source.

Tests used:
[1] = molecular target: T1, androgen receptor (AR) (Homo sapiens, UniProt P10275, T878A); experiment: eGFP cellular AR transcription assay (LNCaP eGFP cells, LN-ARR2PB-eGFP); details: for inhibition at 3 µM: LNCaP, read-out: % Inhibition (3 μM)
T1 sequence (P10275 1-920 T878A): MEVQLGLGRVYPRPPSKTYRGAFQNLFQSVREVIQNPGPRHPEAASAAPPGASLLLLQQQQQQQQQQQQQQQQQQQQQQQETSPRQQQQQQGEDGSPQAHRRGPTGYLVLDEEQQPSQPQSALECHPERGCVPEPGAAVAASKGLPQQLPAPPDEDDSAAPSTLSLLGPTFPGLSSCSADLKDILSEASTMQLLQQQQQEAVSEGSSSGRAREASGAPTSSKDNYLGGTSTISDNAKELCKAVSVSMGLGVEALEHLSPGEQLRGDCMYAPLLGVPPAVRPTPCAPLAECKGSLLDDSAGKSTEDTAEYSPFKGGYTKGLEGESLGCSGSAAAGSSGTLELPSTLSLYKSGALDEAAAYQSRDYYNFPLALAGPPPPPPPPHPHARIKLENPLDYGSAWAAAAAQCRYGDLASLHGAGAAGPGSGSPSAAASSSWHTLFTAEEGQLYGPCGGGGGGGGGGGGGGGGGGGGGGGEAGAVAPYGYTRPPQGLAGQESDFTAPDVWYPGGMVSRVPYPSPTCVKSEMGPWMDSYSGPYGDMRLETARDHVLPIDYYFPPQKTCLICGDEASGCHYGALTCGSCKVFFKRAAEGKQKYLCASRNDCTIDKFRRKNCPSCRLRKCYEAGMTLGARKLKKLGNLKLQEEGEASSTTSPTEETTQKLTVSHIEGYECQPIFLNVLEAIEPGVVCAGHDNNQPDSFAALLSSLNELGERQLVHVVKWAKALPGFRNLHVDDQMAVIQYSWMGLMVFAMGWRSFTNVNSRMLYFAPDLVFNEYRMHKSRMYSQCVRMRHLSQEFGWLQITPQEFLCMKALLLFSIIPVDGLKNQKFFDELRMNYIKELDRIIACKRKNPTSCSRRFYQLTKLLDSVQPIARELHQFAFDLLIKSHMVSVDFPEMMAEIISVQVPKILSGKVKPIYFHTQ

[2] = system: PSA; experiment: Prostate-specific antigen (PSA) assay, secreted PSA from the eGFP assay plates; type: cell-based, human
Procedure: 3. Prostate-specific antigen (PSA) assay: The evaluation of PSA levels secreted into the media was performed in parallel to the eGFP assay using the same plates. After cells were incubated for 3 days, 150 μl of the media was taken from each well, and added to 150 μl of PBS.

[3] = system: AR target genes; experiment: Microarray genetic profile in LNCaP cells; details: 1 nM R1881, 24 h
[4] = eGFP IC50 (μM), LNCaP eGFP cells

Compound | IC50 ([1]; eGFP IC50 (μM), Series 1) [µM] | IC50 ([2]; Homo sapiens, Series 1) [nM] | inhibition at 3 µM [1] [%] | further results
Ic1ncn(-c2csc(N3CCOCC3)n2)c1I [Compound 14464, 4-(4-(4,5-diiodo-1H-imidazol-1-yl)thiazol-2-yl)morpholine] | 1.5 | 1810 |  | 
Cc1[nH]c2ccccc2c1-c1csc(N2CCOCC2)n1 [Compound 14135] | 6.89 | 7800 | 64 | 
c1ccc2c(-c3nc(-c4ccncc4)cs3)c[nH]c2c1 [Compound 14150] | 1.44 | 1290 | 133 | 
Cc1ccc(C)c(-c2csc(N3CCOCC3)n2)c1 [Compound 14293] | 0.62 | 520 |  | 
Oc1cccc(N2Cc3ccccc3C2)c1 [Compound 14309] |  |  |  | IC50 [1, 4]: 0.75 µM; IC50 ([2]; Homo sapiens, secreted PSA): 500 nM
C[C@]1(O)CC[C@H]2[C@@H]3CCC4=CC(=O)CCC4=C3C=C[C@@]21C [Compound R1881, R1881, reference compound] |  |  |  | FKBP5 gene expression fold change, DMSO+R1881 against DMSO-R1881 [3]: 1.61; KLK2 gene expression fold change, DMSO+R1881 against DMSO-R1881 [3]: 3.60; KLK3 (PSA) gene expression fold change, DMSO+R1881 against DMSO-R1881 [3]: 2.42; TMPRSS2 gene expression fold change, DMSO+R1881 against DMSO-R1881 [3]: 2.25
FC(F)(F)c1cccc(-c2csc(N3CCOCC3)n2)c1 [Compound 14292] | 0.61 | 580 |  | 
Fc1ccc(-c2csc(N3CCOCC3)n2)cc1F [Compound 14264] | 0.24 | 110 | 115 | 
COc1c(-c2csc(N3CCOCC3)n2)ccc(F)c1F [Compound 14370] | 0.19 | 250 | 107 | anti-AR activity (AR transcriptional inhibition) in words ([1]; LNCaP (T877A AR)): improved activities
Cc1ccc2sc(N3CCOCC3)nc2c1C [Compound 14332] |  |  | 91.7 | IC50 [1, 4]: 0.068 µM; IC50 ([2]; Homo sapiens, secreted PSA): 58 nM
Fc1ccc(-c2csc(N3CCOCC3)n2)cc1 [Compound 14255] | 0.66 | 410 | 44.9 | 
Brc1cn(-c2csc(N3CCOCC3)n2)cn1 [Compound 14447, 4-(4-(4-bromo-1H-imidazol-1-yl)thiazol-2-yl)morpholine] | 2.1 | 1740 |  | 
Oc1cc(F)ccc1-c1csc(N2CCOCC2)n1 [Compound 14364] |  |  |  | % Inhibition (3 μM) [1]: 91.26%; IC50 ([1]; read-out: eGFP IC50): 1.22 µM; IC50 ([2]; Series 1): 810 nM
Nc1ccccc1-c1csc(N2CCOCC2)n1 [Compound 14273] | 1.41 | 2030 | 73.4 | 
CCOC(=O)c1c(C)[nH]c(C(=O)N[C@@H]2CCCc3ccccc32)c1C [Compound 14002] |  |  |  | IC50 [1, 4]: 11.8 µM; IC50 ([2]; Homo sapiens, secreted PSA): 3540 nM
Clc1ccc(-c2csc(N3CCOCC3)n2)cc1Cl [Compound 14266] |  |  |  | % Inhibition (3 μM) [1]: 82.19%; IC50 ([1]; read-out: eGFP IC50): 3.31 µM; IC50 ([2]; Series 1): 2960 nM
CNc1nc(-c2ccc3ccccc3c2)cs1 [Compound 14203] |  |  | 91.5 | IC50 [1, 4]: 3.17 µM; IC50 ([2]; Homo sapiens, secreted PSA): 3910 nM
Clc1cn(-c2csc(N3CCOCC3)n2)cn1 [Compound 14448, 4-(4-(4-chloro-1H-imidazol-1-yl)thiazol-2-yl)morpholine] | 0.96 | 720 |  | 
FC(F)(F)C1CN(c2nc(-c3ccccc3)cs2)CCO1 (stereo not shown) [Compound 14250] |  |  |  | IC50 ([1]; read-out: eGFP IC50): 1.64 µM; IC50 ([2]; Series 1): 160 nM
Clc1ncn(-c2csc(N3CCOCC3)n2)c1Br [Compound 14451, 4-(4-(5-bromo-4-chloro-1H-imidazol-1-yl)thiazol-2-yl)morpholine] | 0.33 | 440 |  | 
Clc1c(Br)ncn1-c1csc(N2CCOCC2)n1 [Compound 14450, 4-(4-(4-bromo-5-chloro-1H-imidazol-1-yl)thiazol-2-yl)morpholine] | 1.3 | 1280 |  | 
c1cncc(-c2csc(-c3c[nH]c4ccccc34)n2)c1 [Compound 14442] | 5.39 | 3050 | 86.3 | 
O=[N+]([O-])c1cccc2ccc(N3CCOCC3)nc12 [Compound 14398] |  |  |  | IC50 [1, 4]: 0.82 µM; IC50 ([2]; Homo sapiens, secreted PSA): 850 nM

Compound | IC50 ([1]; eGFP IC50 (μM), Series 1) [µM] | IC50 ([2]; Homo sapiens, Series 1) [nM] | inhibition at 3 µM [1] [%] | further results
Clc1ccc(-c2csc(N3CCOCC3)n2)c(Cl)c1 [Compound 14263] |  |  |  | IC50 ([1]; read-out: eGFP IC50): 1.66 µM; IC50 ([2]; Series 1): 1320 nM
Brc1ccc2nc(N3CCOCC3)ccc2c1 [Compound 14452] |  |  |  | IC50 [1, 4]: 0.11 µM; IC50 ([2]; Homo sapiens, secreted PSA): 170 nM
N#Cc1ccc(-c2nc3ccccc3s2)cc1 [Compound 14489] |  |  | 82.5 | IC50 [1, 4]: 1.79 µM; IC50 ([2]; Homo sapiens, secreted PSA): 1060 nM
c1ccc(-c2ccc(N3CCOCC3)s2)cc1 [Compound 14103] | 0.522 | 511 | 100 | 
c1cc(-c2csc(N3CCCCC3)n2)cs1 [Compound 14131] | 0.82 | 540 | 117 | 
Cc1scc(-c2csc(N3CCOCC3)n2)c1C [Compound 14408, 4-(4-(4,5-dimethylthiophen-3-yl)thiazol-2-yl)morpholine] | 0.42 | 430 |  | 
c1ccc(-c2csc(-c3ccncc3)n2)cc1 [Compound 14352] |  |  |  | IC50 ([1]; read-out: eGFP IC50): 1.19 µM; IC50 ([2]; Series 1): 630 nM
c1ccc(-c2csc(N3CCCCC3)n2)cc1 [Compound 14233] | 1.02 | 690 |  | 
Oc1cccc2ccc(N3CCOCC3)nc12 [Compound 14400] |  |  | 79 | IC50 [1, 4]: 0.46 µM; IC50 ([2]; Homo sapiens, secreted PSA): 380 nM
COc1ccccc1-c1csc(N2CCOCC2)n1 [Compound 14257] | 0.22 | 830 | 118 | 
c1ccc(-c2csc(-c3ccccn3)n2)cc1 [Compound 14130] |  |  |  | IC50 ([1]; read-out: eGFP IC50): 7.4 µM; IC50 ([2]; Series 1): 8540 nM
c1csc(-c2nc(-c3c[nH]c4ccccc34)cs2)c1 [Compound 14481] | 2.18 | 1410 | 80.5 | 
c1ccc2nc(N3CCOCC3)ccc2c1 [Compound 14401] |  |  | 76 | IC50 [1, 4]: 0.85 µM; IC50 ([2]; Homo sapiens, secreted PSA): 690 nM
Clc1ncn(-c2csc(N3CCOCC3)n2)c1Cl [Compound 14402, 4-(4-(4,5-dichloro-1H-imidazol-1-yl)thiazol-2-yl)morpholine] | 0.66 | 570 |  | 
CCC1CN(c2nc3ccccc3s2)CCO1 (stereo not shown) [Compound 14392] |  |  | 55.5 | IC50 [1, 4]: 7.07 µM; IC50 ([2]; Homo sapiens, secreted PSA): 10400 nM
Nc1ccccc1-c1nc(-c2cccnc2)cs1 [Compound 14463] | 2.3 | 2120 |  | 
Nc1nc(-c2ccc3ccccc3c2)cs1 [Compound 14204] |  |  | 67.2 | IC50 [1, 4]: 9.16 µM; IC50 ([2]; Homo sapiens, secreted PSA): 10600 nM
COc1cc(F)ccc1-c1csc(N2CCOCC2)n1 [Compound 14367] | 0.3 | 230 | 103 | 
CCc1sc(N2CCOCC2)nc1-c1ccccc1 [Compound 14285] |  |  |  | % Inhibition (3 μM) [1]: 52.34%; IC50 ([1]; read-out: eGFP IC50): 5.85 µM; IC50 ([2]; Series 1): 8430 nM
c1ccc2c(-c3csc(-c4c[nH]c5ccccc45)n3)c[nH]c2c1 [Compound 14471] | 1.02 | 1410 |  | 
Cc1ncn(-c2csc(N3CCOCC3)n2)c1C [Compound 14399] |  |  |  | IC50 ([1]; read-out: eGFP IC50): 3.65 µM; IC50 ([2]; Series 1): 2420 nM
Fc1ccc(-c2csc(-c3ccncc3)n2)cc1 [Compound 14315] | 1.19 | 632 | 83.3 | 
Clc1ncn(-c2csc(N3CCOCC3)n2)c1I [Compound 14468, 4-(4-(4-chloro-5-iodo-1H-imidazol-1-yl)thiazol-2-yl)morpholine] | 2.44 | 4020 |  | 
